Reference: paper PMC5841205, “Pharmacological targeting of apelin impairs glioblastoma growth” (Brain, 2017)
Positions of bridges follow the written chain, without caps; N, C: chain ends. Residues, ends and D or L forms follow the SMILES beside them.

Legend:
[1] = tested on: heart, kidney and liver of mice; assay: Histological and biochemical analysis of heart, kidney and liver; assay type: in vivo, mouse
Procedure: To test potential toxic effects of MM54 and MM193 in vivo, mice were administered 2 mg/kg of MM54, MM193 or vehicle bi-weekly for 4 weeks. At sacrifice, blood was taken for analysis and the heart, kidney, aorta and liver removed, weighed and fixed for histological analysis. For the glycaemic study, animals were starved for 6 h prior to sacrifice. […]
In order to test potential toxic effects of MM54 in vivo, C57Bl/6J female mice were administered 2 mg/kg of MM54
or DMSO vehicle, bi-weekly for 4 weeks. At sacrifice, blood was taken for analysis and the heart, kidney, aorta and
liver removed, weighed and fixed for histological analysis (as shown in Figure S4). n=4 mice/group, 63 mean±SEM.

[2] = Brain pharmacokinetics after intraperitoneal administration; assay type: in vivo, mouse
Procedure: B. MM54 compound was solubilized in water and administered intraperitoneally (IP) at the dose of 3.6 mg/kg to healthy mice.
Mice (3/group) were sacrificed at 10 min, 30 min, 60 min, 2h, 4h, 6h, 8h and 24h post-injection. Plasma and brains were collected and further processed for LC-MS/MS analysis. B/P index is 0.24. AUC is area under the curve. n.d. stands for ‘not able to be

[3] = healthy mice, IP 3.6 mg/kg in water, 3/group, LC-MS/MS

What does the source list for `CC(C)C[C@@H]1NC(=O)[C@H](CCCNC(=N)N)NC(=O)[C@@H]2CCCN2C(=O)[C@H](CCCNC(=N)N)NC(=O)[C@@H](NC(=O)[C@H](Cc2c[nH]cn2)NC(=O)[C@H](CCCCN)NC(=O)[C@@H]2CSSC[C@H](N)C(=O)N[C@@H](CCCNC(=N)N)C(=O)N3CCC[C@H]3C(=O)N[C@@H](CCCNC(=N)N)C(=O)N[C@@H](CC(C)C)C(=O)N2)CSSC[C@@H](C(=O)O)NC1=O` [MM54, cyclo(1–6)CRPRLC-KH-cyclo(9–14)CRPRLC] (H-CRPRLCKHCRPRLC-OH; disulfide 1-6, 9-14)?
histological and biochemical analysis of heart, kidney and liver ([1]; MM54 2 mg/kg bi-weekly for 4 weeks vs vehicle): revealed no differences between MM54-treated animals and vehicle controls; overt adverse effects in vivo ([1]; present dose (2 mg/kg), repeated administration): does not exert any overt adverse effects in vivo; detection in brain ([2]; healthy animals, intraperitoneal): detected in the plasma and the brain; Cmax (µM), brain [2, 3]: 0.14 µM; Cmax (µg.ml-1), brain [2, 3]: 0.26 µg/mL; Time Cmax, brain [2, 3]: 10 min; Kp ([2]; mouse, healthy mice, IP 3.6 mg/kg in water, brain vs plasma, read-out: B/P index): 0.24
